PubChem BioAssay AID1053129 (The Scripps Research Institute Molecular Screening Center, 2014)
Calls of active or inactive are those of the source. How the calls were made is not given here.

Molecular target: Fibrinogen beta chain (Homo sapiens) (UniProt P02675)
Experiment: inhibitors of Tn6 peptide binding to fibrin DD(E), late-stage follow-up, biochemical, fluorescence polarization, human fibrin, dose response (AID 1053129)
Conditions: FP, Tn6 cyclic peptide binding to DD(E)

Chain of Fibrinogen beta chain (Homo sapiens) (P02675 whole entry, looked up): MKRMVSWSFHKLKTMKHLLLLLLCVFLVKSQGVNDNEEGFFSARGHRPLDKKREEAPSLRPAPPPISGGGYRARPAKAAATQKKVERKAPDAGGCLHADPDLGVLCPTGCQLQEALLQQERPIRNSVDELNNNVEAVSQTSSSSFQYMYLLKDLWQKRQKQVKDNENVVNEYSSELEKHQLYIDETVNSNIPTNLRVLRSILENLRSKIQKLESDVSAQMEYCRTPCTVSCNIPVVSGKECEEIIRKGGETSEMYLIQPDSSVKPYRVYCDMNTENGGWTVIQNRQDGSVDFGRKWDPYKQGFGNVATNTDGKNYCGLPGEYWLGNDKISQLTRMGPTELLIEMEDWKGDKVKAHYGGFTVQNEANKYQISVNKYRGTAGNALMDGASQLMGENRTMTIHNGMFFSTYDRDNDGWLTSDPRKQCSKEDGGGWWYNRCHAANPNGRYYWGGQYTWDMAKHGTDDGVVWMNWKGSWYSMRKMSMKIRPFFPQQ

Compound | IC50
Cc1cc2cc(CNS(=O)(=O)c3ccc4ccccc4c3)ccc2n1C | > 83.3 µM (inactive)
Cc1cc2cc(CNC(=O)c3ccc(S(=O)(=O)N4CCOCC4)cc3)ccc2n1C | > 83.3 µM (inactive)
NS(=O)(=O)c1ccc(NS(=O)(=O)c2ccc(NC(=O)c3ccc(-c4ccccc4)cc3)cc2)cc1 | 3.43 µM
Cc1cc2c(cc1S(=O)(=O)N1CCN(c3cccc(C)c3C)CC1)OCCN2C | > 83.3 µM (inactive)
Cc1cc(C)c(S(=O)(=O)NCCn2c(C)cc3ccccc32)c(C)c1 | > 83.3 µM (inactive)
N#CC1=C(N)Oc2ccc3ccc(O)cc3c2C1c1ccsc1 (stereo not given) | 3.5 µM
O=C(O)CCCNc1cc(N2CCN(C(=O)c3ccco3)CC2)c2noc3c2c1C(=O)c1ccccc1-3 | 6.78 µM
COc1ccc2ccccc2c1C(O)c1nccn1C (stereo not given) | > 83.3 µM (inactive)
CN1C(=O)NC(c2ccccc2[N+](=O)[O-])C2=C1CCCC2=O (stereo not given) | inactive
CCn1c(CSc2n[nH]c(N)n2)nc2cc(C(=O)O)ccc21 | 7.39 µM
